In PMC10095345, “The Role of Tyr-His-Trp Triad and Water Molecule Near the N1-Atom of 2-Hydroperoxycoelenterazine in Bioluminescence of Hydromedusan Photoproteins: Structural and Mutagenesis Study” (International Journal of Molecular Sciences, 2023):

Experiments:
[1] = target: T1, obelin (OL_wt) (Obelia longissima, UniProt Q27709); test: Ca2+-triggered bioluminescence of charged photoprotein, luminometer; format: biochemical; conditions: 2 mM CaCl2, 50 mM Tris-HCl pH 8.5, 23 C; bound as 2-hydroperoxycoelenterazine
T1 construct: full-length apo-obelin from pET19-OL8 in E. coli BL21-Gold (DE3) Codon Plus (RIPL), charged with coelenterazine; 195 residues
T1 sequence (Q27709 whole entry): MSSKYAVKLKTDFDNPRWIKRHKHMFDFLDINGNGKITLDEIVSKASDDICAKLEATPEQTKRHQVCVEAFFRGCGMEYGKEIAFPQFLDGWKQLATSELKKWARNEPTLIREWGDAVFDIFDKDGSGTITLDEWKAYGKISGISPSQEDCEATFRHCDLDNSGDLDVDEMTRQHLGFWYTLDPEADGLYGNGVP

[2] = target: T2, aequorin (AV_wt) (Aequorea victoria, UniProt P07164); test: as above; format: biochemical; conditions: 2 mM CaCl2, 50 mM Tris-HCl pH 8.5, 23 C; bound as 2-hydroperoxycoelenterazine
T2 construct: apo-aequorin with N-terminus truncated by six residues, from pET22-A7 in E. coli BL21-Gold (DE3) Codon Plus (RIPL), charged with coelenterazine
T2 sequence (P07164 7-196 limits assumed): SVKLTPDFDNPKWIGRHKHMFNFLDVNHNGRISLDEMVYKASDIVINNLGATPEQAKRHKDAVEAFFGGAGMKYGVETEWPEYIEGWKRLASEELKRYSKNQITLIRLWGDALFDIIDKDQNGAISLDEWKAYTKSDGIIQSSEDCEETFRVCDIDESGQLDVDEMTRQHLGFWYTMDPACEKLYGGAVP

For `Oc1ccc(Cc2nc3c(Cc4ccccc4)nc(-c4ccc(O)cc4)cn3c2O)cc1` [coelenterazine], the “Ca2+-triggered bioluminescence of charged photoprotein, luminometer” value [1] was “Obelin and aequorin as well as their mutants were purified and activated with coelenterazine” and the “Ca2+-triggered bioluminescence of charged photoprotein, luminometer” value [2] was “Obelin and aequorin as well as their mutants were purified and activated with coelenterazine”.
